The record followed here is patent US20110117168A1, “METHODS AND COMPOSITIONS FOR SOFT TISSUE REPAIR” (AFFINERGY, INC., priority 2009, published 2011).

Ends that are not written are not given here.

Assay [1] concerns human ASCs. The assay is described as follows: Biotinylated peptide cell binding specificity by flow cytometry (Neutravidin-PE). The class given is cell-based. The settings on record: 25 μM peptide solution, 30 min at 4° C. From the text:
(§1) The synthetic biotinylated cell binding peptide SEQ ID NO: 4 was examined for its ability to specifically bind MSCs compared to a number of other cells types including adipose-derived mesenchymal stem cells (ASCs), dermal fibroblasts, rodent MSCs, red blood cells, monocytes, lymphocytes and granulocytes. The cell binding peptide was biotinylated as described herein at Example 2. Cultured cells of each type were either purchased (ASCs and dermal fibroblasts) or isolated from rodent bone marrow (rodent MSCs) or human blood. Cells were first harvested and resuspended at 10^6/mL in PBS+2% fetal bovine serum (FBS). An aliquot of cells (50 μL) was incubated in 50 μL of peptide solution (25 μM in PBS+FBS) for 30 min at 4° C. Cells were then washed twice in PBS+FBS with 300×g centrifugation for 5 min between washes. Fluorescently-tagged neutravidin (Neutravidin-PE from INVITROGEN) was then added to the cells to label biotinylated peptide bound to cells. Neutravidin-PE was diluted 1:250 from stock and applied at 50 μL to cells. Cells were then washed in PBS+FBS, and acquired on a BD […]. Peptide reactivity was then measured as percent positivity relative to Neutravidin-PE staining without the addition of biotinylated peptide.
A general note: A flow cytometer gives signals particle by particle.

Assay [2] concerns human MSCs. The assay is described as above. The class given is cell-based. The settings on record: 25 μM peptide solution, 30 min at 4° C.
Source text: as §1

Assay [3] concerns dermal fibroblasts. The assay is described as above. The class given is cell-based, human. The note with it: 25 μM peptide solution, 30 min at 4° C.
Source text: as §1

Assay [4] concerns ECFCs. The assay is described as follows: Biotinylated peptide binding to endothelial and other cells by flow cytometry. The class given is cell-based, human. The settings on record: biotinylated peptide 10 μM, 30 min at 4° C. As for the experimental part: (§2) The synthetic biotinylated binding peptide SEQ ID NO: 4 was further examined for its ability to bind endothelial cells compared to other cell types (see FIG. 16). […] ECFCs are clonally expanded cells isolated from human umbilical cord blood, and are considered highly proliferative endothelial progenitor cells (EPCs) based on their clonogenic and proliferative potential. In another experiment, binding peptide SEQ ID NO: 4 was assayed for its ability to selectively isolate endothelial cells versus smooth muscle cells in the presence of whole blood. HUVECs or UASMCs were incubated in the presence of medium containing 20% whole blood and binding peptide SEQ ID NO: 4-conjugated magnetic beads (via biotin-SA) for 30 min. The solutions containing the bead-peptide-cell complexes were then passed through a […] LS column in a magnetic field. The column was washed, and the remaining peptide-bound cells were then released from the magnetic field and counted.

Assay [5] deals with HUVECs. The description is as above. The class given is cell-based, human. The note with it: biotinylated peptide 10 μM, 30 min at 4° C. As to the method:
as §2

Assay [6] has as its system peripheral blood cells. The description is as above. Type of assay: cell-based, human. The settings on record: biotinylated peptide 10 μM, 30 min at 4° C. As to the method:
as §2

The subject of assay [7] is MSCs. The assay is described as follows: Immunoreactivity of cells captured from bone marrow aspirate. Type of assay: cell-based, human. The settings on record: CD29, CD44, CD73, CD105, CD166, CD90, CD45, CD34. As for the experimental part:
This experiment was performed to examine the ability of cell binding peptide SEQ ID NO: 4 to capture MSCs directly from bone marrow aspirate in comparison to two separate antibodies against the CD105 I antigen (CD105) and the MSCA-1 stem cell antigen (MSCA-1). This experiment employed biotinylated peptides with streptavidin-coated […] magnetic beads. The peptides were biotinylated as described herein at Example 2. […] For the antibody capture experiment, magnetic beads having covalently attached CD105 or MSCA-1 antibody were employed ([…]). Prior to incubation with the peptides and antibodies, bone marrow aspirate (BMA) was mixed with 5 volumes of 10 mM ammonium chloride for 1-2 min at room temperature to lyse red blood cells. The lysate was centrifuged for 5 min at 300×g and the supernatant discarded. The cell pellet was washed with wash buffer (PBS+0.5% bovine serum albumin+0.5 mM EDTA) and cells were resuspended in […] peptide at a concentration of 10^8 per mL. For peptide binding studies, the cell suspension was incubated with the biotinylated peptides for 30 min at 4° C. to allow for binding. After incubation, cells were spun down at 300×g for 5 min, and peptide solution was aspirated. Cells were then rinsed twice with wash buffer, with centrifugation between washes. […] Colony forming units (CFUs) were counted after 14 days in culture. […]

The subject of assay [8] is MSCs. The assay is described as follows: Osteoblast differentiation of peptide-captured MSCs (Alizarin Red S). Type of assay: cell-based, human. The settings on record: 14 days in osteoblast differentiation medium. As to the method: Osteoblast differentiation. For osteogenic differentiation, the MSCs present in the […] column eluants (see Example 6) were cultured for 14 days in complete medium supplemented with 0.1 μM dexamethasone, 50 μM ascorbate-2-phosphate, 10 mM β-glycerophosphate, and 1% antibiotic/antimycotic. Calcium mineralization was measured by Alizarin Red S (SIGMA) staining to reveal mineralizing osteoblasts (see FIG. 26, panel C (undifferentiated MSCs) and panel D (osteoblast differentiated MSCs)).

The test system of assay [9] is MSCs. The assay is described as follows: Chondrocyte differentiation of peptide-captured MSCs (aggrecan immunostaining). The class given is cell-based, human. The note with it: 24 days in CHONDRODIFF medium. As for the experimental part:
Chondrocyte differentiation. To examine chondrocyte differentiation, the MSCs present in the […] column eluants (see Example 6) were pelleted by centrifugation at 150×g for 5 minutes. Cells were washed once with 1 ml MACS NH CHONDRODIFF Medium without disturbing the pellet. Cells were spun again and 1 mL CHONDRODIFF Medium was added to each pellet. Every third day, medium was aspirated and replaced with fresh pre-warmed medium. After 24 days in culture, cells exposed to CHONDRODIFF medium formed cartilage plugs or nodules, whereas control cells formed only loose or small nodules. Cells were washed once with PBS and fixed in neutral buffered formalin overnight. Sections were embedded in paraffin and sectioned at 5 microns. Sections were examined by hemotoxylin and eosin staining (data not shown). Sections were further examined by immunostaining for aggrecan, a major structural component of cartilage. In FIG. 27, sections from the periphery (panels A and B) or center (panels C and D) were incubated with an antibody against aggrecan (ABCAM) (panels B and D) or with secondary detection reagents only as a control (panels A and C), then counterstained with DAPI to reveal cell nuclei. […] Control images of captured cells grown in the absence of differentiation medium could not be taken due to the small and loose nature of nodules.

Take “SSFWDVCQGDGTCYGGGSR (SSFWDVCQGDGTCYGGGSRGSSG-{K(biotin)}; cysteine pairing not given here) [SEQ ID NO: 4, tested biotinylated with GSSGK(biotin) or other spacer at the C-terminus]”: in assay [1], the “binding to human ASCs (percent positivity relative to Neutravidin-PE staining)” value is listed as “high binding”. In addition, the “binding to human MSCs (percent positivity relative to Neutravidin-PE staining)” value in assay [2] is recorded as “high binding”. For the same sequence, in assay [3], the “binding to dermal fibroblasts (percent positivity relative to Neutravidin-PE staining)” value was “high binding”. Moreover, in assay [4], the “cross-reactivity with ECFCs” value is “strongly”. The “cross-reactivity with HUVECs” value in assay [5] was “strongly”. Further, the “cross-reactivity with peripheral blood cells” value in assay [6] is “no cross-reactivity”. Further, the “immunoreactivity of isolated cells compared with CD105 isolated cells” value in assay [7] is “no changes were observed”. In addition, the “osteoblast differentiation of captured MSCs” value in assay [8] is listed as “osteogenic pathway remains intact”. The “chondrocyte differentiation of captured MSCs (aggrecan)” value in [9] is given as “aggrecan could be detected”.
